Measurements reported in patent publication US20240261283A1, “PHARMACEUTICAL PREPARATION FOR PREVENTING OR TREATING PULMONARY FIBROSIS” (J2H BIOTECH INC., priority 2021, published 2024).

Key:
[1] = test system: pulmonary fibrosis mouse model induced by radiation; test: Radiation-induced pulmonary fibrosis mouse model, collagen deposition by Masson's trichrome staining of lung tissue; type: in vivo, C57BL/6 mice; details: radiation 90 Gy to chest; oral, twice a day, 14 days; nintedanib 30 mg/kg (G2), Chemical Formula 1 compound 10 mg/kg (G3), combination 10 + 30 mg/kg (G4); compared to vehicle group (G1)
Procedure: The test compound was administered orally to C57BL/6 male 8-week-old mice, and 1 hour later, radiation (90 Gy, 4 mm collimator) was irradiated to the chest at a size of 3 mm. Afterwards, test compounds were administered orally twice a day for 14 days, and then an autopsy was performed. Mouse lung tissue was fixed with 10% formalin, paraffin sections were made, and the degree of collagen deposition within the tissue was confirmed using trichrome staining.
According to Reference Example 1, test compounds were administered to a mouse model of radiation-induced pulmonary fibrosis and an autopsy was performed. Mouse lung tissue was fixed in 10% neutral formalin for one day and paraffin sections were made. To remove paraffin around the tissue, it was sequentially reacted in xylene, 95, 90, and 70% ethanol solutions for 5 minutes each. To activate the tissue antigen, the tissue was immersed in a 0.1 M citric acid (pH 6.0) solution and boiled for 20 minutes. Then, it was sequentially reacted with Bouin's solution for 1 minute, Weigert's hematoxylin for 10 minutes, Phosphotunstic/phosphomolydic acid for 10 minutes, aniline blue for 5 minutes, and 1% acetic acid for 1 minute. Next, after a dehydration process, it was sealed with a cover glass and observed under a microscope (Carl Zeiss Vision).

[2] = test system: bleomycin-induced pulmonary fibrosis mouse model; test: Bleomycin-induced pulmonary fibrosis mouse model, hydroxyproline in lung tissue lysate by ELISA; type: in vivo, C57BL/6N mice; details: oral, twice a day, 14 days
Procedure: C57BL/6N mice were anesthetized using isoflurane. Afterwards, an incision was made in the center of the neck to expose the airway. Bleomycin dissolved in physiological saline injection solution was slowly injected at 1.25 mg/kg into the exposed upper respiratory tract using an insulin syringe. Afterwards, the insulin syringe was removed and the incision was sutured. Afterwards, test compounds were administered orally twice a day for 14 days, and then an autopsy was performed. The mouse's left lung tissue was fixed with 10% formalin, paraffin sections were made, and the degree of lung fibrosis was evaluated using H&E staining. The right lung was tissue lysed for qPCR and hydroxyproline measurements. Afterwards, it was used in each experiment to evaluate the expression of lung fibrosis-related genes and the degree of collagen deposition in the lung.
According to Reference Example 2, test compounds were administered to a mouse model of bleomycin-induced pulmonary fibrosis and an autopsy was performed. The left lung tissue of the mouse was fixed in 10% neutral formalin for one day and paraffin sections were made. To remove paraffin around the tissue, it was sequentially reacted in xylene, 95, 90, and 70% ethanol solutions for 5 minutes each. […] The other half of the tissue was lysed and the lysate was analyzed using a hydroxyproline ELISA kit.

| Structure (SMILES) | anti-fibrotic effect of suppressing collagen deposition (trichrome staining, FIGS. 1 and 2) [1] | collagen deposition, primary evaluation index of pulmonary fibrosis (conclusion of Example 2) ([2]; bleomycin-induced model, doses as in Table 2) | expression of hydroxyproline in lung tissue (FIG. 5) ([2]; bleomycin 1.25 mg/kg, Chemical Formula 1 compound 30, 100, 200 mg/kg (G3-G5), combination 60 + 30 mg/kg (G6), nintedanib 60 mg/kg (G7), compared to vehicle group (G2)) |
| --- | --- | --- | --- |
| C[C@@H]1CN(c2ccc(S(C)(=O)=O)cc2F)CCN1c1nccc(C(=O)N[C@H]2C3CC4CC2C[C@](O)(C4)C3)n1 [compound of Chemical Formula 1, 2-((R)-4-(2-fluoro-4-(methylsulfonyl)phenyl)-2-methylpiperazin-1-yl)-N-((1R,2s,3S,5S,7S)-5-hydroxyadamantan-2-yl)pyrimidine-4-carboxamide] | significantly inhibits collagen deposition | significantly inhibits collagen deposition |  |
| COC(=O)c1ccc2c(c1)NC(=O)/C2=C(\Nc1ccc(N(C)C(=O)CN2CCN(C)CC2)cc1)c1ccccc1 [nintedanib] | high significance |  | significant differences were confirmed in all administration groups except the nintedanib single administration group (G7) |
